Inconclusive results and toxic doses are left out. Cut-off read from the data, not from the text of the source: active = T/C of 150% or more; inactive = T/C below 125%.
Test system: L1210 leukemia ip in BDF1 mice, survival T/C
Test: NCI In Vivo Anticancer Drug Screen. Data for tumor model L1210 Leukemia (intraperitoneal) in B6D2F1 (BDF1) mice
Details: endpoint: mean survival time, higher = longer survival
Summary of the method: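 Transplantable tumor model; survival measured in treated vs vehicle control mice. Value = treated/control.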

[1] = dose: 50.0 mg/kg/injection, schedule: Q01DX001 (ip), vehicle: other
[2] = dose: 100.0 mg/kg/injection, schedule: Q01DX009 (ip), vehicle: saline with Tween-80
[3] = dose: 100.0 mg/kg/injection, schedule: Q04DX003 (ip), vehicle: saline with Tween-80
[4] = dose: 200.0 mg/kg/injection, schedule: Q01DX009 (ip), vehicle: saline with Tween-80
[5] = dose: 200.0 mg/kg/injection, schedule: Q04DX003 (ip), vehicle: saline with Tween-80
[6] = dose: 400.0 mg/kg/injection, schedule: Q01DX009 (ip), vehicle: saline with Tween-80
[7] = dose: 400.0 mg/kg/injection, schedule: Q04DX003 (ip), vehicle: saline with Tween-80
[8] = dose: 50.0 mg/kg/injection, schedule: Q01DX009 (ip), vehicle: saline with Tween-80
[9] = dose: 75.0 mg/kg/injection, schedule: Q01DX001 (ip), vehicle: saline
[10] = dose: 150.0 mg/kg/injection, schedule: Q01DX001 (ip), vehicle: saline
[11] = dose: 100.0 mg/kg/injection, schedule: Q01DX009 (ip), vehicle: saline
[12] = dose: 200.0 mg/kg/injection, schedule: Q01DX009 (ip), vehicle: saline
[13] = dose: 400.0 mg/kg/injection, schedule: Q01DX009 (ip), vehicle: saline
[14] = dose: 100.0 mg/kg/injection, schedule: Q01DX009 (ip), vehicle: Klucel (hydroxypropylcellulose) (HPC)
[15] = dose: 200.0 mg/kg/injection, schedule: Q01DX009 (ip), vehicle: Klucel (hydroxypropylcellulose) (HPC)
[16] = dose: 100.0 mg/kg/injection, schedule: Q04DX003 (ip), vehicle: Klucel (hydroxypropylcellulose) (HPC)
[17] = dose: 200.0 mg/kg/injection, schedule: Q04DX003 (ip), vehicle: Klucel (hydroxypropylcellulose) (HPC)
[18] = dose: 400.0 mg/kg/injection, schedule: Q01DX009 (ip), vehicle: Klucel (hydroxypropylcellulose) (HPC)
[19] = dose: 400.0 mg/kg/injection, schedule: Q04DX003 (ip), vehicle: Klucel (hydroxypropylcellulose) (HPC)

Measured: T/C

O=S1(=O)CC(Cl)C(Cl)C1 (stereo unspecified)
inactive: dose: 1.56 mg/kg/injection, schedule: Q01DX009 (ip), vehicle: saline 90 % of control | dose: 3.12 mg/kg/injection, schedule: Q01DX009 (ip), vehicle: saline 91 % of control | dose: 6.25 mg/kg/injection, schedule: Q01DX009 (ip), vehicle: saline 91 % of control | dose: 12.5 mg/kg/injection, schedule: Q01DX001 (ip), vehicle: other 94 % of control | dose: 12.5 mg/kg/injection, schedule: Q01DX001 (ip), vehicle: saline with Tween-80 98 % of control | dose: 12.5 mg/kg/injection, schedule: Q01DX009 (ip), vehicle: other 90 % of control | dose: 12.5 mg/kg/injection, schedule: Q01DX009 (ip), vehicle: saline 98 % of control | dose: 12.5 mg/kg/injection, schedule: Q04DX003 (ip), vehicle: Klucel (hydroxypropylcellulose) (HPC) 106 % of control | dose: 25.0 mg/kg/injection, schedule: Q01DX001 (ip), vehicle: other 95 % of control | dose: 25.0 mg/kg/injection, schedule: Q01DX001 (ip), vehicle: saline with Tween-80 100 % of control | dose: 25.0 mg/kg/injection, schedule: Q04DX003 (ip), vehicle: Klucel (hydroxypropylcellulose) (HPC) 108 % of control | dose: 25.0 mg/kg/injection, schedule: Q04DX003 (ip), vehicle: saline with Tween-80 101 % of control | [1] 95 % of control | dose: 50.0 mg/kg/injection, schedule: Q04DX003 (ip), vehicle: Klucel (hydroxypropylcellulose) (HPC) 92 % of control | dose: 50.0 mg/kg/injection, schedule: Q04DX003 (ip), vehicle: saline with Tween-80 90 % of control

c1ccc2c(c1)ccc1[nH]c3c(c12)CCCC3
inactive: dose: 100.0 mg/kg/injection, schedule: Q01DX001 (ip), vehicle: carboxymethylcellulose (CMC) 95 % of control | dose: 200.0 mg/kg/injection, schedule: Q01DX001 (ip), vehicle: carboxymethylcellulose (CMC) 90 % of control | dose: 400.0 mg/kg/injection, schedule: Q01DX001 (ip), vehicle: carboxymethylcellulose (CMC) 97 % of control

CC(=O)Oc1ccc(C2CC(=O)OC2=O)cc1 (stereo unspecified)
inactive: [2] 105 % of control | [3] 92 % of control | [4] 97 % of control | [5] 91 % of control | [6] 87 % of control | [7] 92 % of control

O=Cc1[nH]c(=S)[nH]c(=O)c1Cc1ccc(Br)cc1
inactive: dose: 100.0 mg/kg/injection, schedule: Q01DX001 (ip), vehicle: saline with Tween-80 106 % of control | [2] 94 % of control | dose: 200.0 mg/kg/injection, schedule: Q01DX001 (ip), vehicle: saline with Tween-80 98 % of control | [4] 91 % of control | dose: 400.0 mg/kg/injection, schedule: Q01DX001 (ip), vehicle: saline with Tween-80 98 % of control | [6] 98 % of control

Cc1nc2nc3c(ncn3C3OC(CO)C(O)C3O)c(=O)n2nc1C (stereo unspecified)
inactive: dose: 100.0 mg/kg/injection, schedule: Q01DX005 (ip), vehicle: saline 102 % of control | dose: 200.0 mg/kg/injection, schedule: Q01DX005 (ip), vehicle: saline 92 % of control

CC(C)NC(=O)C1CC2c3cccc4[nH]c(Br)c(c34)CC2N(C)C1 (stereo unspecified)
inactive: dose: 5.0 mg/kg/injection, schedule: Q04DX003 (ip), vehicle: saline with Tween-80 94 % of control | dose: 10.0 mg/kg/injection, schedule: Q04DX003 (ip), vehicle: saline with Tween-80 93 % of control | dose: 20.0 mg/kg/injection, schedule: Q04DX003 (ip), vehicle: saline with Tween-80 88 % of control

CC12CCCCC1=CC(=O)CCC2 (stereo unspecified)
inactive: [8] 98 % of control | [2] 98 % of control | [4] 98 % of control

C/C=C(\C)C1(CC)C(=O)NC(=O)N(C)C1=O (stereo unspecified)
inactive: [9] 93 % of control | [10] 97 % of control

NC(=NCCO)C(N)=NCCO
inactive: [11] 102 % of control | dose: 100.0 mg/kg/injection, schedule: Q04DX003 (ip), vehicle: saline 96 % of control | [12] 94 % of control | dose: 200.0 mg/kg/injection, schedule: Q04DX003 (ip), vehicle: saline 96 % of control | [13] 94 % of control | dose: 400.0 mg/kg/injection, schedule: Q04DX003 (ip), vehicle: saline 100 % of control

CN(C)C/C(=N\O)c1ccc(Cl)cc1
inactive: dose: 50.0 mg/kg/injection, schedule: Q01DX009 (ip), vehicle: Klucel (hydroxypropylcellulose) (HPC) 93 % of control | dose: 100.0 mg/kg/injection, schedule: Q01DX001 (ip), vehicle: saline 97 % of control | [14] 93 % of control | dose: 200.0 mg/kg/injection, schedule: Q01DX001 (ip), vehicle: saline 100 % of control | [15] 100 % of control

CN(C)c1ccc(C(=O)Oc2ccc([N+](=O)[O-])cc2)cc1
inactive: [14] 90 % of control | [16] 95 % of control | [15] 101 % of control | [17] 98 % of control | [18] 102 % of control | [19] 96 % of control

O=C(Nc1cccc(Cl)c1)Oc1cccc2c1CCC2
inactive: dose: 100.0 mg/kg/injection, schedule: Q04DX002 (sc), vehicle: olive oil, sesame oil, peanut oil 97 % of control | dose: 200.0 mg/kg/injection, schedule: Q04DX002 (sc), vehicle: olive oil, sesame oil, peanut oil 94 % of control | dose: 400.0 mg/kg/injection, schedule: Q04DX002 (sc), vehicle: olive oil, sesame oil, peanut oil 102 % of control

COC12CC3C4=CCOC5CC(=O)N6c7ccccc7C1(CCN2C4)C6C53 (stereo unspecified)
inactive: dose: 5.0 mg/kg/injection, schedule: Q01DX001 (ip), vehicle: saline 97 % of control | dose: 10.0 mg/kg/injection, schedule: Q01DX001 (ip), vehicle: saline 97 % of control | dose: 20.0 mg/kg/injection, schedule: Q01DX001 (ip), vehicle: saline 101 % of control

CC(S(C)(=O)=O)(S(C)(=O)=O)S(C)(=O)=O
inactive: dose: 75.0 mg/kg/injection, schedule: Q01DX001 (ip), vehicle: saline with Tween-80 96 % of control | dose: 150.0 mg/kg/injection, schedule: Q01DX001 (ip), vehicle: saline with Tween-80 96 % of control | dose: 300.0 mg/kg/injection, schedule: Q01DX001 (ip), vehicle: saline with Tween-80 107 % of control

Cc1cccc(-n2cnc3c(=O)[nH]c(N)nc32)c1
inactive: [16] 95 % of control | [17] 95 % of control | [19] 93 % of control

O=c1cc(CO)occ1O
inactive: [2] 93 % of control | [11] 92 % of control | [4] 90 % of control | [12] 106 % of control | [6] 92 % of control | [13] 97 % of control

CCC(CN)(c1ccccc1)c1ccccc1
inactive: [1] 96 % of control | dose: 100.0 mg/kg/injection, schedule: Q01DX001 (ip), vehicle: other 104 % of control | dose: 200.0 mg/kg/injection, schedule: Q01DX001 (ip), vehicle: other 102 % of control | dose: 400.0 mg/kg/injection, schedule: Q01DX001 (ip), vehicle: other 96 % of control

OC12Cc3ccccc3C1=NN(c1ccccc1)C2c1ccccc1 (stereo unspecified)
inactive: dose: 25.0 mg/kg/injection, schedule: Q01DX009 (ip), vehicle: saline with Tween-80 101 % of control | [8] 104 % of control | [2] 90 % of control | [3] 93 % of control | [5] 97 % of control | [7] 91 % of control

Nc1ncnc2nn(C3OC(CO)C(O)C3O)nc12 (stereo unspecified)
inactive: [9] 105 % of control | [10] 105 % of control | dose: 300.0 mg/kg/injection, schedule: Q01DX001 (ip), vehicle: saline 108 % of control

Cc1ccc(N=Nc2ccc(C)cc2NC(=O)C2CC2)cc1
inactive: [14] 97 % of control | [15] 97 % of control | [18] 97 % of control
